From US8722670B2, “Selective NR2B antagonists” (Bristol-Myers Squibb Company, priority 2011, dated 2014)

The compounds below were run against T1, hNR2B (Homo sapiens, UniProt Q05586+Q13224) (assay: Electrophysiology NMDA receptor experiments: two electrode voltage-clamp in Xenopus laevis oocytes, hNR2B IC50). Conditions: hNR2B activity class, 50 μM glutamate, 30 μM glycine, read-out: Activity.
T1 construct: expressed in transfected cells; host or cells: Xenopus laevis oocytes, cRNA-injected
Format: cell-based

T1 sequence (Q13224 27-1484, other chains not shown): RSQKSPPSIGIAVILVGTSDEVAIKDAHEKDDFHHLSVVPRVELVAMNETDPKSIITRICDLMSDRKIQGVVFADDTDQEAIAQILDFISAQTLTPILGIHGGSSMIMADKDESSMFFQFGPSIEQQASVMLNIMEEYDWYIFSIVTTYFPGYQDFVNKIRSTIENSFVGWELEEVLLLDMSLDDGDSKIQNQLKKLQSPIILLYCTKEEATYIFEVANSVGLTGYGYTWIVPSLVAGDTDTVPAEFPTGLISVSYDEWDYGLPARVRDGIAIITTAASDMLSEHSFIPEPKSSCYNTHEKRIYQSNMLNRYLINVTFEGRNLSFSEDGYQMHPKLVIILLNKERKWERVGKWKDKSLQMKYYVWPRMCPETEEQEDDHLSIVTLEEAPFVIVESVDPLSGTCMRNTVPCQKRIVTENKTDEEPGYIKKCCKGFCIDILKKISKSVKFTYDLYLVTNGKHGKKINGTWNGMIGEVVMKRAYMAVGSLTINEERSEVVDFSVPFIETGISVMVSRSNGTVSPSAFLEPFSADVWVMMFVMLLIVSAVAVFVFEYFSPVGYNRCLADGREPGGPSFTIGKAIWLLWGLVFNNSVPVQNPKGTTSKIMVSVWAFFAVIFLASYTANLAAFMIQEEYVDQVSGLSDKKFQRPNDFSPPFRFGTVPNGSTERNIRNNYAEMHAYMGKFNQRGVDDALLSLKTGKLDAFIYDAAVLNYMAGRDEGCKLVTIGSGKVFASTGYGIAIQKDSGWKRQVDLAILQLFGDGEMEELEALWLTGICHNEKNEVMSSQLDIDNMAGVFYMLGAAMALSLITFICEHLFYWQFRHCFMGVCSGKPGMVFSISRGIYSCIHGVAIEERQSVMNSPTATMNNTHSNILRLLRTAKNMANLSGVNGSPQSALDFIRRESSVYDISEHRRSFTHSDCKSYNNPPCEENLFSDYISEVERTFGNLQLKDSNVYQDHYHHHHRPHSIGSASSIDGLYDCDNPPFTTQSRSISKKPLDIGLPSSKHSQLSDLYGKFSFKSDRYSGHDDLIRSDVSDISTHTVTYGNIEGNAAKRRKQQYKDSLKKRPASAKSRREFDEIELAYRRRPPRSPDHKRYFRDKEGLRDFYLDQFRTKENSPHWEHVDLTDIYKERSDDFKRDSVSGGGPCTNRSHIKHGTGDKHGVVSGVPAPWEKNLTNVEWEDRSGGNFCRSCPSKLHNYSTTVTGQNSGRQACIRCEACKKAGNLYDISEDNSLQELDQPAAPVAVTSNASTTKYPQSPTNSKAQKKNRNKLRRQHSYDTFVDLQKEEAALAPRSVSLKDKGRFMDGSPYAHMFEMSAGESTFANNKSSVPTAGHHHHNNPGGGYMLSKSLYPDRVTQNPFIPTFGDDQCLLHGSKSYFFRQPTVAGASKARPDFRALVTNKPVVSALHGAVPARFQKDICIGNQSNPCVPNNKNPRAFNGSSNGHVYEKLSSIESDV

| Structure (SMILES) | IC50 [µM] |
| --- | --- |
| O=C1CCc2cc(OCc3nnc(Nc4ccc(C(F)(F)F)cc4)s3)ccc2N1 [Example 242] | < 0.2 |
| O=c1ccc2cc(OCc3nnc(Nc4ccc(Cl)cc4)s3)ccc2[nH]1 [Example 244] | < 0.2 |
| O=c1ccc2cc(OCc3nnc(Nc4ccc(OC(F)(F)F)cc4)s3)ccc2[nH]1 [Example 245] | < 0.2 |
| O=C1CCc2cc(OCc3nnc(Nc4ccc(OC(F)(F)F)cc4)s3)ccc2N1 [Example 247] | < 0.2 |
| O=C1CCc2cc(OCc3nnc(NCc4ccc(Cl)c(Cl)c4)s3)ccc2N1 [Example 248] | 0.201 to 1 |
| O=c1ccc2cc(OCc3nnc(NCc4ccc(Cl)c(Cl)c4)s3)ccc2[nH]1 [Example 249] | 0.201 to 1 |
| O=C1CCc2cc(OCc3nnc(Nc4ccc(Cl)cc4)s3)ccc2N1 [Example 250] | 0.201 to 1 |
| O=c1ccc2cc(OCc3cc(Nc4ccc(Cl)c(F)c4)no3)ccc2[nH]1 [Example 256] | < 0.2 |
| O=c1ccc2cc(OCc3cc(Nc4ccc(OC(F)F)cc4)no3)ccc2[nH]1 [Example 260] | < 0.2 |
| Cc1ccc(Nc2cc(COc3ccc4[nH]c(=O)ccc4c3)on2)cc1C [Example 262] | 1 to 10 |
| O=c1ccc2cc(OCc3cc(Nc4ccc(Cl)c(C(F)(F)F)c4)no3)ccc2[nH]1 [Example 263] | 1 to 10 |
| O=c1ccc2cc(OCc3cc(Nc4ccc(C(F)(F)F)cc4)no3)ccc2[nH]1 [Example 264] | < 0.2 |
| CCc1ccc(Nc2cc(COc3ccc4[nH]c(=O)ccc4c3)on2)cc1 [Example 265] | < 0.2 |
| CCCc1ccc(Nc2cc(COc3ccc4[nH]c(=O)ccc4c3)on2)cc1 [Example 266] | > 10 |
| Cc1cc(Nc2cc(COc3ccc4[nH]c(=O)ccc4c3)on2)ccc1F [Example 270] | 1 to 10 |
| Cc1ccc(Nc2cc(COc3ccc4[nH]ncc4c3)on2)cc1F [Example 271] | < 0.2 |
| CCc1ccc(Nc2cc(COc3ccc4[nH]ncc4c3)on2)cc1 [Example 273] | 1 to 10 |
| Cn1c(COc2ccc3[nH]c(=O)ccc3c2)nnc1Nc1ccc(OC(F)(F)F)cc1 [Example 279] | < 0.2 |
| Cn1c(CCNc2ncnc3[nH]ncc23)nnc1Nc1ccc(OC(F)F)cc1 [Example 280] | < 0.2 |
| CCn1c(COc2ccc3[nH]c(=O)ccc3c2)nnc1Nc1ccc(OC(F)F)cc1 [Example 281] | < 0.2 |
| O=C1CCc2cc(OCc3nnc(Nc4ccc(Cl)cc4)[nH]3)ccc2N1 [Example 283] | 0.201 to 1 |

Results, then the compound that gave them:

| IC50 [µM] | Structure (SMILES) |
| --- | --- |
| 0.201 to 1 | Oc1ccc(CCc2nc(Nc3ccc(OC(F)(F)F)cc3)no2)cc1 [Example 224] |
| 0.201 to 1 | Oc1ccc(CCc2nc(Nc3ccc(Cl)cc3)no2)cc1 [Example 225] |
| 0.201 to 1 | Oc1ccc(CCc2nc(Nc3ccc(OC(F)F)cc3)no2)cc1 [Example 226] |
| > 10 | Fc1cc(Nc2noc(CCc3ccc4cn[nH]c4c3)n2)ccc1Cl [Example 227] |
| 1 to 10 | Fc1cc(Nc2noc(CCc3cccc4[nH]ncc34)n2)ccc1Cl [Example 228] |
| < 0.2 | FC(F)Oc1ccc(Nc2noc(CCc3ccc4cn[nH]c4c3)n2)cc1Cl [Example 230] |
| 1 to 10 | FC(F)Oc1ccc(Nc2noc(CCc3cccc4[nH]ncc34)n2)cc1Cl [Example 231] |
| 1 to 10 | Oc1ccc(CCc2nc(Nc3ccc(Cl)c(Cl)c3)no2)cc1 [Example 232] |
| < 0.2 | Fc1cc(Nc2noc(CCc3cnc4[nH]ncc4c3)n2)ccc1OC(F)F [Example 233] |
| 1 to 10 | FC(F)Oc1ccc(Nc2noc(CCc3ccc4[nH]nc(Cl)c4c3)n2)cc1Cl [Example 234] |
| 0.201 to 1 | Cc1cc(Nc2noc(C3CC3c3ccc4[nH]ncc4c3)n2)ccc1OC(F)F (centres unmarked) [Example 236] |
| < 0.2 | Fc1cc(Nc2noc(C3CC3c3ccc4[nH]ncc4c3)n2)ccc1OC(F)F (centres unmarked) [Example 238] |
| < 0.2 | O=c1ccc2cc(OCc3nnc(Nc4ccc(Cl)c(Cl)c4)s3)ccc2[nH]1 [Example 243] |
| < 0.2 | O=c1ccc2cc(OCc3cc(Nc4ccc(OC(F)F)c(Cl)c4)no3)ccc2[nH]1 [Example 255] |
| < 0.2 | FC(F)Oc1ccc(Nc2cc(COc3ccc4[nH]ncc4c3)on2)cc1Cl [Example 258] |
| < 0.2 | COc1ccc(Nc2cc(COc3ccc4[nH]c(=O)ccc4c3)on2)cc1Cl [Example 261] |
| < 0.2 | O=c1ccc2cc(OCc3cc(Nc4ccc(OC(F)F)c(F)c4)no3)ccc2[nH]1 [Example 267] |
| < 0.2 | Cc1cc(Nc2cc(COc3ccc4[nH]c(=O)ccc4c3)on2)ccc1OC(F)F [Example 268] |
| < 0.2 | O=c1ccc2cc(OCc3cc(Nc4ccc(C(F)(F)F)c(Cl)c4)no3)ccc2[nH]1 [Example 269] |
| < 0.2 | Cc1cc(Nc2cc(COc3ccc4[nH]ncc4c3)on2)ccc1OC(F)F [Example 272] |
| < 0.2 | Fc1cc(Nc2cc(COc3ccc4[nH]ncc4c3)on2)ccc1OC(F)F [Example 274] |
| < 0.2 | FC(F)Oc1ccc(Nc2cc(COc3ccc4[nH]ncc4c3)on2)cc1 [Example 275] |

Same assay, conditions: voltage clamp -40 mV, 50 μM glutamate, 30 μM glycine, read-out: hNR2B IC50

| Structure (SMILES) | IC50 [µM] |
| --- | --- |
| O=C1CCc2cc(OCc3nnc(Nc4ccc(Cl)c(Cl)c4)s3)ccc2N1 [Example 240] | 0.266 |
| O=c1ccc2cc(OCc3nnc(Nc4ccc(C(F)(F)F)cc4)s3)ccc2[nH]1 [Example 241] | 0.03 |
| O=c1ccc2cc(OCc3nnc(NCc4ccc(Cl)nc4)s3)ccc2[nH]1 [Example 251] | 9.4 |
| O=C1CCc2cc(OCc3csc(Nc4ccc(Cl)c(Cl)c4)n3)ccc2N1 [Example 252, 6-((2-(3,4-dichlorophenylamino)thiazol-4-yl)methoxy)-3,4-dihydroquinolin-2(1H)-one] | 24 |
| O=c1ccc2cc(OCc3cc(NCc4ccc(OC(F)F)cc4)no3)ccc2[nH]1 [Example 253, 6-((3-(4-(difluoromethoxy)benzylamino)isoxazol-5-yl)methoxy)quinolin-2(1H)-one] | 0.321 |
| Cn1c(COc2ccc3[nH]c(=O)ccc3c2)nnc1Nc1ccc(OC(F)F)cc1 [Example 278] | 0.09 |
| O=c1ccc2cc(OCc3nnc(Nc4ccc(Cl)cc4)[nH]3)ccc2[nH]1 [Example 282] | 0.29 |

Continued, values first:

| IC50 [µM] | Structure (SMILES) |
| --- | --- |
| 0.044 | Cc1cc(Nc2noc(C3CC3c3ccc4[nH]c(=O)ccc4c3)n2)ccc1OC(F)F (centres unmarked) [Example 235, 6-(2-(3-((4-(difluoromethoxy)-3-methylphenyl)amino)-1,2,4-oxadiazol-5-yl)cyclopropyl)quinolin-2(1H)-one] |
| 3.6 | O=C1CCc2cc(OCc3noc(Nc4ccc(Cl)c(Cl)c4)n3)ccc2N1 [Example 239, 6-((5-((3,4-dichlorophenyl)amino)-1,2,4-oxadiazol-3-yl)methoxy)-3,4-dihydroquinolin-2(1H)-one] |
| 0.193 | O=c1ccc2cc(OCc3cc(Nc4ccc(Cl)c(Cl)c4)no3)ccc2[nH]1 [Example 254] |
| 0.01 | O=c1ccc2cc(OCc3cc(Nc4ccc(Cl)c(F)c4)no3)ccc2[nH]1 [Example 257] |
| 0.024 | Cn1c(COc2ccc3[nH]c(=O)ccc3c2)nnc1Nc1ccc(Cl)c(Cl)c1 [Example 276, 6-((5-(3,4-dichlorophenylamino)-4-methyl-4H-1,2,4-triazol-3-yl)methoxy)quinolin-2(1H)-one] |
| 0.104 | Cn1c(CCc2ccc3[nH]ncc3c2)nnc1Nc1ccc(OC(F)F)cc1 [Example 277, 5-(2-(1H-indazol-5-yl)ethyl)-N-(4-(difluoromethoxy)phenyl)-4-methyl-4H-1,2,4-triazol-3-amine] |
